{"source": "ChEMBL document CHEMBL1135447", "about": "“Design and synthesis of tricyclic compounds with enone functionalities in rings A and C: a novel class of highly active inhibitors of nitric oxide production in mouse macrophages” (J Med Chem, 2002)"}
{"species_on_record": "Mus musculus", "experiment": "(§1) Inhibitory activity against nitric oxide production induced by interferon-gamma (IFN-gamma) in mouse macrophages", "type": "functional", "details": "not given", "units": {"IC50": "nM"}}
{"molecule": "CC1(C)C(=O)C(C#N)=C[C@]2(C)C3=CC(=O)C=C[C@]3(C)CC[C@@H]12", "note": "(stereo in doubt; (+)-6)", "IC50": 58}
{"molecule": "CC1(C)C(=O)C(C#N)=C[C@]2(C)C3=CC(=O)C=C[C@]3(C)CC[C@@H]12", "note": "(stereo in doubt; (-)-6)", "IC50": 64}
{"species_on_record": "Mus musculus", "experiment": "as §1", "type": "functional", "details": "Mus musculus", "units": {"IC50": "nM"}}
{"molecule": "CC1(C)C(=O)C(C#N)=C[C@]2(C)C3=CC(=O)C(C(N)=O)=C[C@]3(C)CC[C@@H]12", "note": "(racemic)", "IC50": 61}
{"molecule": "CC(=O)O[C@@H]1CCC=C2[C@@]3(C)C=C(C#N)C(=O)C(C)(C)[C@@H]3CC[C@]21C", "note": "(racemic)", "IC50": 480}
{"molecule": "CC1(C)C(=O)C(C#N)=C[C@]2(C)C3=CCC[C@@H](O)[C@]3(C)CC[C@@H]12", "note": "(racemic)", "IC50": 310}
{"molecule": "CC1(C)C(=O)C(C#N)=C[C@]2(C)C3=CC(=O)C[C@@H](O)[C@]3(C)CC[C@@H]12", "note": "(racemic)", "IC50": 75}
{"molecule": "CC(=O)O[C@@H]1CC(=O)C=C2[C@@]3(C)C=C(C#N)C(=O)C(C)(C)[C@@H]3CC[C@]21C", "note": "(racemic)", "IC50": 53}
{"molecule": "CC1(C)C(=O)C(C#N)=C[C@]2(C)C3=CC(=O)C(C(=O)O)=C[C@]3(C)CC[C@@H]12", "note": "(racemic)", "IC50": 1600}
{"molecule": "COC(=O)C1=C[C@]2(C)CC[C@H]3C(C)(C)C(=O)C(C#N)=C[C@]3(C)C2=CC1=O", "note": "(racemic)", "IC50": 91}
{"molecule": "CC1(C)C(=O)C(C#N)=C[C@]2(C)C3=CC(=O)C(C#N)=C[C@]3(C)CC[C@@H]12", "note": "(racemic)", "IC50": 2.1}
{"molecule": "CC1(C)C(=O)C(C#N)=C[C@]2(C)C3=CC(=O)C=C[C@]3(C)CC[C@@H]12", "note": "(racemic)", "IC50": 61}
{"molecule": "CC1(C)CC[C@]2(C(=O)O)CC[C@]3(C)[C@H](C(=O)C=C4[C@@]5(C)C=C(C#N)C(=O)C(C)(C)[C@@H]5CC[C@]43C)[C@@H]2C1", "note": "[BARDOXOLONE]", "IC50": 0.5}
{"molecule": "CC1(C)CC[C@]2(C(=O)O)CC[C@]3(C)C(=CC[C@@H]4[C@@]5(C)CC[C@H](O)C(C)(C)[C@@H]5CC[C@]43C)[C@@H]2C1", "note": "[OLEANOLIC_ACID]", "IC50": "> 40000"}
